Measurements published in US20200405697A1, “Antitumor Agent” (Taiho Pharmaceutical Co., Ltd, priority 2017, published 2020).

Tests used:
[1] = target: T1, human RNR (histidine tagged human M1 and human M2 proteins) (Homo sapiens, UniProt P23921); test: Human RNR inhibition effect (dCDP formation from CDP); format: biochemical; conditions: 10 μM CDP, 37° C. for 30 minutes, read-out: RNR inhibitory activity IC50
T1 construct: made in house; host or cells: Escherichia coli
T1 sequence (P23921 1-792): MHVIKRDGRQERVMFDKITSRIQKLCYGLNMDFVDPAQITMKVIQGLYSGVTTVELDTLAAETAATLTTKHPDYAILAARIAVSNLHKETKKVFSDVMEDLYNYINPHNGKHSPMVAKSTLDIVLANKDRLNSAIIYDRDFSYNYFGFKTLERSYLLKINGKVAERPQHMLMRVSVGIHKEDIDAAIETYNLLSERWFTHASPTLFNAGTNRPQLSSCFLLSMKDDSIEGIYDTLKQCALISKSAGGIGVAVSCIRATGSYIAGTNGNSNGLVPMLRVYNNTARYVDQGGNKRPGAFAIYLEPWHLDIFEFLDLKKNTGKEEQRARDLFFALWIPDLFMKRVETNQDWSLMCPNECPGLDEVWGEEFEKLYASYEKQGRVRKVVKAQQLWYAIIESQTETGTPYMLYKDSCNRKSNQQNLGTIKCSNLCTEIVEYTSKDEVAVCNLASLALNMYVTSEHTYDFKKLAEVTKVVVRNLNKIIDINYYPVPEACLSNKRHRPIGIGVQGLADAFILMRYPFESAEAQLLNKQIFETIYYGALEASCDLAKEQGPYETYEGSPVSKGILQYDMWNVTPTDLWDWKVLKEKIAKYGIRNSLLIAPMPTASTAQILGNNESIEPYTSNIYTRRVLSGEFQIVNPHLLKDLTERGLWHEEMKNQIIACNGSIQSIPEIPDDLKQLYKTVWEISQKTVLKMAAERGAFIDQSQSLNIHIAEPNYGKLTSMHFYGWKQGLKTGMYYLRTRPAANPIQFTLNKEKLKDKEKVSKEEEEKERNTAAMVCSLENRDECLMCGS
Method: The inhibitory activity against the ribonucleotide reduction reaction (RNR inhibitory activity) of the Example compound was determined by measuring the formation of deoxycytidine diphosphate (hereinafter referred to as dCDP) from cytidine diphosphate (hereinafter referred to as CDP) by the following method.
Human M1 subunit (isoform 1, GenBank accession No: NM_001033), to which a histidine tag is fused at the amino terminus, and human M2 subunit (mutant lacking amino terminal 59 amino acids of isoform 2, GenBank accession No: NM_001034), to which a histidine tag is fused, were overexpressed in Escherichia coli and were solubilized after collection, and histidine tagged human M1 and histidine tagged human M2 proteins were purified on a nickel chelate column. A mixture of the histidine tagged human M1 and histidine tagged human M2 proteins was used as RNR in the ribonucleotide reduction reaction. [to]
First, Example compounds were serially diluted with DMSO. Next, human M1 protein and human M2 protein were added to a 0.02% aqueous albumin solution derived from fetal bovine serum, a DMSO solution of the Example compound or the control DMSO solution (final concentration of DMSO was 1%) was added, and the mixture was allowed to stand for 20 minutes. Thereafter, the reaction buffer [50 mM HEPES buffer (pH 7.2) at the final concentration, 4 mM magnesium acetate at the final concentration, 100 mM potassium chloride at the final concentration, 6 mM dithiothreitol at the final concentration, 2 mM adenosine triphosphate at the final concentration, 0.24 mM nicotinamide adenine dinucleotide phosphate at final concentration] and 10 μM CDP at the final concentration were added and incubated at 37° C. for 30 minutes to perform ribonucleotide reduction reaction. Immediately after the reaction, the reaction was stopped by heating at 100° C. for 15 minutes, followed by centrifugation at 10,000 rpm for 10 minutes. After the centrifugation, a portion (5 μL) of the resulting supernatant was analyzed with a high performance liquid chromatography (Shimadzu Corporation, Prominence) using Shim-pack XR-ODS (manufactured by Shimadzu GLC Co., 3.0×100 mm).

[2] = tested on: A549 (Human lung cancer cell line); test: Effect of combination of sulfonamide compound and other antitumor agent (CellTiter-Glo, combination index): A549
[3] = Example Compound 14 4420 nM + Oxaliplatin 1060 nM
[4] = Example Compound 209A 952 nM + Oxaliplatin 1060 nM
[5] = Example Compound 235A 1170 nM + Oxaliplatin 1060 nM
[6] = Example Compound 14 2950 nM + Sunitinib 1870 nM
[7] = Example Compound 14 4420 nM + Sunitinib 2800 nM
[8] = Example Compound 209A 635 nM + Sunitinib 1870 nM
[9] = Example Compound 209A 952 nM + Sunitinib 2800 nM
[10] = Example Compound 235A 780 nM + Sunitinib 1870 nM
[11] = Example Compound 235A 1170 nM + Sunitinib 2810 nM
[12] = Example Compound 14 4420 nM + Azacytidine 4080 nM
[13] = Example Compound 209A 635 nM + Azacytidine 2740 nM
[14] = Example Compound 209A 952 nM + Azacytidine 4110 nM
[15] = Example Compound 235A 780 nM + Azacytidine 2740 nM
[16] = Example Compound 235A 1170 nM + Azacytidine 4110 nM
[17] = Example Compound 14 4420 nM + Midostaurin 251 nM
[18] = Example Compound 209A 952 nM + Midostaurin 251 nM
[19] = Example Compound 235A 1170 nM + Midostaurin 251 nM

Q: For `Cc1ccc(F)c([C@@H](C)[C@H](NS(=O)(=O)c2ccccc2C#N)c2n[nH]c(=O)o2)c1C` [Example 98, 2-cyano-N-((1S,2R)-2-(6-fluoro-2,3-dimethylphenyl)-1-(5-oxo-4,5-dihydro-1,3,4-oxadiazol-2-yl)propyl)benzenesulfonamide], which IC50 [1] is on record?
A: Its IC50 is 640 nM.

Q: For `COc1ccccc1-c1ccc(C(N)=O)c(S(=O)(=O)N[C@H](c2n[nH]c(=O)o2)[C@H](C)c2c(F)ccc(C)c2C)c1` [Example 345], which IC50 [1] is on record?
A: The IC50 was 250 nM.

Q: How did the IC50 [1] turn out when `C[C@H](c1cccc2c1Cc1ccccc1-2)[C@H](NS(=O)(=O)c1ccc(Br)cn1)c1n[nH]c(=O)o1` [Example 49, N-((1S,2R)-2-(9H-fluoren-1-yl)-1-(5-oxo-4,5-dihydro-1,3,4-oxadiazol-2-yl)propyl)-5-bromopyridine-2-sulfonamide] was run?
A: The IC50 was 800 nM.

Q: `O=C1[O][Pt]2([NH][C@@H]3CCCC[C@H]3[NH]2)[O]C1=O` [Oxaliplatin, oxaliplatin] was tested. Which CI value [2, 3] did it give?
A: Its CI value is 0.829.

Q: And the Fa value [2, 3]?
A: Its Fa value is 0.7498.

Q: What about the CI value [2, 4] of the same molecule?
A: The CI value was 0.762.

Q: And the Fa value [2, 4]?
A: The Fa value was 0.7832.

Q: What about the CI value [2, 5] of the same molecule?
A: The CI value was 0.793.

Q: What about the Fa value [2, 5] of the same molecule?
A: Its Fa value is 0.7355.

Q: How did the CI value [2, 6] turn out when `CCN(CC)CCNC(=O)c1c(C)[nH]c(/C=C2\C(=O)Nc3ccc(F)cc32)c1C` [Sunitinib, sunitinib] was run?
A: The CI value was 0.693.

Q: And the Fa value [2, 6]?
A: The Fa value was 0.7017.

Q: And the CI value [2, 7]?
A: Its CI value is 0.728.

Q: And the Fa value [2, 7]?
A: The Fa value was 0.8248.

Q: What about the CI value [2, 8] of the same molecule?
A: Its CI value is 0.688.

Q: And the Fa value [2, 8]?
A: Its Fa value is 0.6919.

Q: And the CI value [2, 9]?
A: Its CI value is 0.723.

Q: And the Fa value [2, 9]?
A: Its Fa value is 0.8234.

Q: What about the CI value [2, 10] of the same molecule?
A: Its CI value is 0.709.

Q: What about the Fa value [2, 10] of the same molecule?
A: Its Fa value is 0.6775.

Q: And the CI value [2, 11]?
A: Its CI value is 0.675.

Q: What about the Fa value [2, 11] of the same molecule?
A: Its Fa value is 0.8225.

Q: Which results are given for `Nc1ncn([C@@H]2O[C@H](CO)[C@@H](O)[C@H]2O)c(=O)n1` [Azacytidine, azacitidine]?
A: CI value [2, 12]: 0.744; Fa value [2, 12]: 0.7570; CI value [2, 13]: 0.850; Fa value [2, 13]: 0.6005; CI value [2, 14]: 0.520; Fa value [2, 14]: 0.8264; CI value [2, 15]: 0.822; Fa value [2, 15]: 0.5392; CI value [2, 16]: 0.767; Fa value [2, 16]: 0.6909

Q: What does the source list for `CO[C@@H]1[C@H](N(C)C(=O)c2ccccc2)C[C@H]2O[C@]1(C)n1c3ccccc3c3c4c(c5c6ccccc6n2c5c31)C(=O)NC4` [Midostaurin, midostaurin]?
A: CI value [2, 17]: 0.719; Fa value [2, 17]: 0.8117; CI value [2, 18]: 0.583; Fa value [2, 18]: 0.8520; CI value [2, 19]: 0.775; Fa value [2, 19]: 0.7639
